According to US20090099192A1, “Substituted 1H-pyrrole-2,5-diones” (Bayer CropScience AG, priority 2004, published 2009):

Experiments:
[1] = system: larvae of the mustard beetle (Phaedon cochleariae); assay: Phaedon test (spray treatment); assay type: in vivo; details: for Kill rate in % after 7 d: 500 g/ha, spray, Brassica pekinensis disks
Experimental: (§1) [table] To produce a suitable preparation of active compound, 1 part by weight of active compound is mixed with the stated amounts of solvents and emulsifier, and the concentrate is diluted with emulsifier-containing water to the desired concentration. Disks of Chinese cabbage (Brassica pekinensis) are sprayed with an active compound preparation of the desired concentration and, after drying, populated with larvae of the mustard beetle (Phaedon cochleariae). After the desired period of time, the effect in % is determined. 100% means that all beetle larvae have been killed; 0% means that none of the beetle larvae have been killed.

[2] = system: caterpillars of the army worm (Spodoptera frugiperda); assay: Spodoptera frugiperda test (corn leaf disks sprayed); assay type: in vivo; details: for Kill rate in % after 7 d: 500 g/ha, spray, Zea mays leaf disks
Experimental: as §1, with “corn leaves (Zea mays)” for “Chinese cabbage (Brassica pekinensis)”, “caterpillars” for “larvae”, “army worm (Spodoptera frugiperda).” for “mustard beetle (Phaedon cochleariae).”, “caterpillars” for “beetle larvae”

[3] = system: larvae of the mustard beetle (Phaedon cochleariae); assay: Phaedon larvae test (cabbage leaves dipped); assay type: in vivo; details: for Kill rate in % after 7 d: leaf dip, Brassica oleracea
Experimental: [table] To produce a suitable preparation of active compound, 1 part by weight of active compound is mixed with the stated amount of solvent and the stated amount of emulsifier, and the concentrate is diluted with water to the desired concentration. Cabbage leaves (Brassica oleracea) are treated by being dipped into the active compound preparation of the desired concentration and populated with larvae of the mustard beetle (Phaedon cochleariae) while the leaves are still moist. After the desired period of time, the kill in % is determined. 100% means that all beetle larvae have been killed; 0% means that none of the beetle larvae have been killed.

[4] = logP determination by HPLC on reversed-phase column (C 18), EEC Directive 79/831 Annex V.A8; assay type: physicochemical; details: reversed-phase C 18, 43° C., acid range (0.1% aqueous phosphoric acid, acetonitrile), marked a)
Experimental: a) The logP values given in table 1 were determined in accordance with EEC Directive 79/831 Annex V.A8 by HPLC (High Performance Liquid Chromatography) on a reversed-phase column (C 18). Temperature: 43° C. (a) Mobile phases for the determination in the acid range: 0.1% aqueous phosphoric acid, acetonitrile; linear gradient from 10% acetonitrile to 90% acetonitrile—corresponding measurement results are marked a) in table 1. Calibration was carried out using unbranched alkan-2-ones (having 3 to 16 carbon atoms) with known logP values (determination of the logP values by the retention times using linear interpolation between two successive alkanones).

Row | Compound | activity in the Phaedon test (spray treatment) [1] | Kill rate in % after 7 d [1] [%] | activity in the Spodoptera frugiperda test (spray) [2] | Kill rate in % after 7 d [2] [%] | activity in the Phaedon larvae test [3] | Kill rate in % after 7 d ([3]; 1000 ppm) [%] | logP [4] | Kill rate in % after 7 d ([3]; 500 ppm) [%]
1 | O=C1C(OCc2ccc(Cl)cc2)=C(c2ccccc2Cl)C(=O)N1C1CCCC(C(F)(F)F)C1 (stereo not drawn) [Example 203] | good activity | 100 | good activity | 100 | – | – | – | –
2 | CC(C)N1C(=O)C(O)=C(c2cccc(C(F)(F)F)c2)C1=O [Example 6] | – | – | – | – | good activity | 100 | – | –
3 | O=C1C(O)=C(c2ccccc2Cl)C(=O)N1C1CCC(C(F)(F)F)CC1 (stereo not drawn) [Example 210] | – | – | – | – | good activity | – | logP = 3.59^a) | 100
4 | Cc1cc(C)c(C2=C(O)C(=O)N(Cc3ccccc3)C2=O)c(C)c1 [Example 5] | – | – | – | – | good activity | 100 | – | –
5 | O=C1C(O)=C(c2ccccc2[N+](=O)[O-])C(=O)N1C1CCCC(C(F)(F)F)C1 (stereo not drawn) [Example 194] | good activity | 100 | – | – | – | – | logP = 3.01^a) | –
6 | O=C1C(O)=C(c2cc(F)ccc2Br)C(=O)N1C1CCCC(C(F)(F)F)C1 (stereo not drawn) [Example 198] | good activity | 100 | – | – | – | – | logP = 3.46^a) | –
7 | CC1CCCC(N2C(=O)C(O)=C(c3ccccc3Br)C2=O)C1 (stereo not drawn) [Example 197] | good activity | 100 | good activity | 100 | – | – | logP = 3.61^a) | –
8 | COc1ccccc1C1=C(O)C(=O)N(C2CCCC(C(F)(F)F)C2)C1=O (stereo not drawn) [Example 189] | good activity | 83 | – | – | – | – | logP = 3.32^a) | –
9 | CC(C)(c1ccccc1)N1C(=O)C(O)=C(c2cccc(C(F)(F)F)c2)C1=O [Example 7] | – | – | – | – | good activity | 100 | – | –
10 | O=C1C(O)=C(c2ccccc2OC(F)(F)F)C(=O)N1C1CCCC(C(F)(F)F)C1 (stereo not drawn) [Example 190] | good activity | 100 | good activity | 83 | – | – | logP = 3.77^a) | –
11 | O=C1C(O)=C(c2ccc(C(F)(F)F)cc2)C(=O)N1CC(F)(F)F [Example 8] | – | – | – | – | good activity | – | – | 100
12 | Cc1ccccc1C1=C(O)C(=O)N(C2CCCC(C(F)(F)F)C2)C1=O (stereo not drawn) [Example 188] | good activity | 100 | good activity | 100 | – | – | logP = 3.11^a) | –
13 | O=C1C(O)=C(c2ccc(Cl)cc2Br)C(=O)N1C1CCCC(C(F)(F)F)C1 (stereo not drawn) [Example 186] | good activity | 100 | good activity | 100 | – | – | logP = 2.53^a) | –
14 | O=C1C(OCc2ccccc2)=C(c2ccccc2Cl)C(=O)N1C1CCCC(C(F)(F)F)C1 (stereo not drawn) [Example 204] | good activity | 100 | good activity | 100 | – | – | logP = 5.01^a) | –
15 | CC1CC(N2C(=O)C(O)=C(c3ccccc3Cl)C2=O)CC(C)(C)C1 (stereo not drawn) [Example 199] | good activity | 100 | – | – | – | – | logP = 4.18^a) | –
16 | O=C1C(O)=C(c2ccc(Br)cc2Cl)C(=O)N1C1CCCC(C(F)(F)F)C1 (stereo not drawn) [Example 187] | good activity | 100 | – | – | – | – | logP = 2.47^a) | –
17 | O=C1C(O)=C(c2c(F)cccc2F)C(=O)N1C1CCC(C(F)(F)F)CC1 (stereo not drawn) [Example 209] | – | – | – | – | good activity | – | – | 100
